For one assay, the system named is strains tested. It counts as cell-based. The settings on record: agar plate.
The subject of another assay is Salmonella typhimurium. Kind of assay: Inhibition zone assay (agar plate). It counts as cell-based.
Another assay relates to Erwinia amylovora. Briefly: Inhibition zone assay (agar plate). It counts as cell-based.
The test system of the next assay is Shigella dysenteriae. It counts as cell-based. The following applies: 50 nanomoles per well (3 mm diameter).
For another assay, the system named is Salmonella typhi. The format is cell-based.
The next assay relates to E. coli D22. It counts as cell-based. The following applies: 50 nanomoles per well (3 mm diameter).
Assay [1] has as its system Acinetobacter calcoaceticus. Briefly: Inhibition zone assay (agar plate). The format is cell-based.
The test system of a further assay is Klebsiella pneumoniae. Kind of assay: Inhibition zone assay (agar plate). The format is cell-based.
The test system of assay [2] is Escherichia coli (ATCC11775). Kind of assay: Inhibition zone assay (agar plate). The format is cell-based.
A further assay concerns Enterobacter cloacae. Kind of assay: Inhibition zone assay (agar plate). It counts as cell-based.
The test system of assay [3] is Agrobacterium tumefaciens. Kind of assay: Inhibition zone assay (agar plate). It counts as cell-based.
Another assay relates to gram positives. The settings on record: cited from earlier work.
For a further assay, the system named is gram negative bacteria. The following applies: many gram negative bacteria; cited from earlier work.
For the next assay, the system named is E. coli Apid^R. Briefly: Minimal inhibitory concentration (liquid culture). The format is cell-based. The following applies: inoculum 1000 CFU/ml; a-b = highest concentration with growth - lowest without growth. The text has this:
For details see `Experimental Procedures`.

Another assay relates to Francisella tularensis. The format is cell-based. The following applies: agar plate, 50 nanomoles/well, 3 mm wells.
The subject of the next assay is S. typhimurium. Briefly: Minimal inhibitory concentration (liquid culture). The settings on record: inoculum 8 × 10^6 CFU/ml; a-b = highest concentration with growth - lowest without growth.
Another assay deals with Yersinia enterocolitica. Briefly: Inhibition zone assay (agar plate). The format is cell-based. The settings on record: 50 nanomoles/well, 3 mm wells.
Another assay deals with A. calcoaceticus. Kind of assay: Minimal inhibitory concentration (liquid culture). The following applies: inoculum 16 × 10^6 CFU/ml; a-b = highest concentration with growth - lowest without growth.
The subject of another assay is Y. enterocolitica. Briefly: Minimal inhibitory concentration (liquid culture). The settings on record: inoculum 5000 CFU/ml; a-b = highest concentration with growth - lowest without growth.
A further assay relates to Pseudomonas syringae. Briefly: Inhibition zone assay (agar plate). The following applies: agar plate, 50 nanomoles/well, 3 mm wells. The format is cell-based.
The subject of the next assay is E. coli 25922. Briefly: Minimal inhibitory concentration (liquid culture). The following applies: inoculum 1100 CFU/ml; a-b = highest concentration with growth - lowest without growth.
The subject of another assay is Rhizobium meliloti. Kind of assay: Inhibition zone assay (agar plate). The format is cell-based. The settings on record: 50 nanomoles/well, 3 mm wells.
For another assay, the system named is Morganella morganii. Kind of assay: Inhibition zone assay (agar plate). It counts as cell-based. The following applies: 50 nanomoles/well, 3 mm wells.
Assay [4] deals with Escherichia coli (11775 Apid R). The format is cell-based. The following applies: agar plate, 50 nanomoles/well, 3 mm wells.
Another assay concerns E. coli 11775. Briefly: Minimal inhibitory concentration (liquid culture). The settings on record: a-b = highest concentration with growth - lowest without growth.
In another assay the test system is M. morganii. Briefly: Minimal inhibitory concentration (liquid culture). The following applies: inoculum 400 CFU/ml; a-b = highest concentration with growth - lowest without growth.
Another assay deals with Haemophilus influenzae. Kind of assay: Inhibition zone assay (agar plate). The format is cell-based. The settings on record: 50 nanomoles/well, 3 mm wells.
The next assay has as its system E. coli 23802. Briefly: Minimal inhibitory concentration (liquid culture). The settings on record: inoculum 5000 CFU/ml; a-b = highest concentration with growth - lowest without growth.
The mark [5] stands for this setting: 50 nanomoles per well (3 mm diameter).
[6] abbreviates: agar plate, 50 nanomoles/well, 3 mm wells.

Residues, ends and D or L forms follow the SMILES beside them.

On to `CC(C)C[C@H](NC(=O)[C@H](CCCNC(=N)N)NC(=O)[C@@H]1CCCN1C(=O)[C@H](Cc1c[nH]cn1)NC(=O)[C@@H]1CCCN1C(=O)[C@@H](NC(=O)[C@H](CCCNC(=N)N)NC(=O)[C@@H]1CCCN1C(=O)[C@@H]1CCCN1C(=O)[C@@H](NC(=O)[C@H](CCC(N)=O)NC(=O)[C@H](CCC(N)=O)NC(=O)[C@@H]1CCCN1C(=O)[C@H](CCCNC(=N)N)NC(=O)[C@@H]1CCCN1C(=O)[C@H](CCCCN)NC(=O)CN)C(C)C)[C@@H](C)O)C(=O)O` [HoGT, G K P R P Q Q V P P R T P H P R L] (H-GKPRPQQVPPRTPHPRL-OH), for which the “antibacterial activity, overall (inhibition zone)” value in the assay with strains tested is “lack detectable antibacterial activity”.
Turning to `CC[C@H](C)[C@H](NC(=O)[C@@H]1CCCN1C(=O)[C@@H](NC(=O)[C@H](CCC(N)=O)NC(=O)[C@@H]1CCCN1C(=O)[C@H](CO)NC(=O)[C@@H]1CCCN1C(=O)[C@H](CCCNC(=N)N)NC(=O)[C@@H](N)CO)C(C)C)C(=O)N[C@@H](CCCNC(=N)N)C(=O)N1CCC[C@H]1C(=O)N[C@@H](CO)C(=O)N[C@@H](CCC(N)=O)C(=O)N1CCC[C@H]1C(=O)N[C@@H](CCCNC(=N)N)C(=O)N1CCC[C@H]1C(=O)N[C@@H](CCC(N)=O)C(=O)N1CCC[C@H]1C(=O)N[C@@H](Cc1ccccc1)C(=O)N[C@@H](CCCCN)C(=O)N1CCC[C@H]1C(=O)N[C@@H](CCCNC(=N)N)C(=O)N1CCC[C@H]1C(=O)N[C@@H](CCC(N)=O)C(=O)N[C@@H](CCC(N)=O)C(=O)N[C@H](C(=O)N1CCC[C@H]1C(=O)N1CCC[C@H]1C(=O)N[C@@H](CCCNC(=N)N)C(=O)N[C@H](C(=O)N1CCC[C@H]1C(=O)N[C@@H](Cc1c[nH]cn1)C(=O)N1CCC[C@H]1C(=O)N[C@@H](CCCNC(=N)N)C(=O)N[C@@H](CC(C)C)C(=O)O)[C@@H](C)O)C(C)C` [PAB-FT 1-35, SRPSPQVPIRPSQPRPQPFKPRPQQVPPRTPHPRL] (H-SRPSPQVPIRPSQPRPQPFKPRPQQVPPRTPHPRL-OH), the “Inhibition zones: in mm diameter” value in the assay with Salmonella typhimurium (setting [5]) is listed as 7 mm; in the assay with Erwinia amylovora (setting [5]), 5 mm; in the assay on Shigella dysenteriae, 12 mm; with Salmonella typhi (setting [5]) it was 14 mm; with E. coli D22 it was 14 mm; in assay [1] (setting [5]), 7 mm. For the same compound, the “Inhibition zones: in mm diameter” value in the assay on Klebsiella pneumoniae (setting [5]) was 9 mm; in [2] (setting [5]), 10 mm; in the assay on Enterobacter cloacae (setting [5]) it was 11 mm; in assay [3] (setting [5]), 5 mm. Also, the “antibacterial activity, overall (inhibition zone)” value with strains tested is “has antibacterial activity”.
As for `CC(C)C[C@H](NC(=O)[C@H](CCCNC(=N)N)NC(=O)[C@@H]1CCCN1C(=O)[C@H](Cc1c[nH]cn1)NC(=O)[C@@H]1CCCN1C(=O)[C@@H](NC(=O)[C@H](CCCNC(=N)N)NC(=O)[C@@H]1CCCN1C(=O)[C@@H]1CCCN1C(=O)[C@@H](NC(=O)[C@H](CCC(N)=O)NC(=O)[C@H](CCC(N)=O)NC(=O)[C@@H]1CCCN1C(=O)[C@H](CCCNC(=N)N)NC(=O)[C@@H]1CCCN1C(=O)[C@H](CCCCN)NC(=O)[C@@H](N)Cc1ccccc1)C(C)C)[C@@H](C)O)C(=O)O` [HoFT, F K P R P Q Q V P P R T P H P R L] (H-FKPRPQQVPPRTPHPRL-OH), in the assay on strains tested, the “antibacterial activity, overall (inhibition zone)” value was “lack detectable antibacterial activity”.
Regarding `CC[C@H](C)[C@H](NC(=O)[C@H](Cc1ccc(O)cc1)NC(=O)[C@@H](NC(=O)[C@@H]1CCCN1C(=O)[C@H](CCCNC(=N)N)NC(=O)[C@H](CC(N)=O)NC(=O)[C@H](CC(N)=O)NC(=O)CN)C(C)C)C(=O)N1CCC[C@H]1C(=O)N[C@@H](CCC(N)=O)C(=O)N1CCC[C@H]1C(=O)N[C@@H](CCCNC(=N)N)C(=O)N1CCC[C@H]1C(=O)N1CCC[C@H]1C(=O)N[C@@H](Cc1cnc[nH]1)C(=O)N1CCC[C@H]1C(=O)N[C@@H](CCCNC(=N)N)C(=O)N[C@@H](CC(C)C)C(=O)O` [Apidaecin] (H-GNNRPVYIPQPRPPHPRL-OH), in the assay with gram positives, the “effect on gram positives” value was “unaffected”. In the assay on gram negative bacteria, the dose inhibiting viability entry is reported as “nanomolar doses”.
Regarding `CC[C@H](C)[C@H](NC(=O)[C@@H]1CCCN1C(=O)[C@H](C)NC(=O)[C@@H]1CCCN1C(=O)[C@H](CCCNC(=N)N)NC(=O)[C@@H]1CCCN1C(=O)[C@H](CCCNC(=N)N)NC(=O)[C@@H](N)CC(N)=O)C(=O)N[C@@H](CCC(N)=O)C(=O)N1CCC[C@H]1C(=O)N[C@@H](CCCNC(=N)N)C(=O)N1CCC[C@H]1C(=O)N1CCC[C@H]1C(=O)N[C@@H](Cc1c[nH]cn1)C(=O)N1CCC[C@H]1C(=O)N[C@@H](CCCNC(=N)N)C(=O)N[C@@H](CC(C)C)C(=O)O` [Cd 1-, Asn--Arg--Pro--Arg--Pro--Ala--Pro--Ile--Gln--Pro--Arg--Pro--Pro--His--Pro--Arg--Leu] (H-NRPRPAPIQPRPPHPRL-OH), the “inhibition zone diameter (number of plus signs)” value (shortened to “inhibition zone diameter”) with Salmonella typhimurium (setting [6]) is on record as “+++ ((+++) 10-14 mm)”; with Francisella tularensis, “++ ((++) 7-9 mm)”; with Yersinia enterocolitica, “++ ((++) 7-9 mm)”; in the assay on Erwinia amylovora (setting [6]) it was “++++ ((++++) 15-19 mm)”; with Pseudomonas syringae, “++++ ((++++) 15-19 mm)”; in the assay with Salmonella typhi (setting [6]), “++ ((++) 7-9 mm)”. Further, the “inhibition zone diameter” value is listed as “++++ ((++++) 15-19 mm)” with Rhizobium meliloti; “++ ((++) 7-9 mm)” in the assay on Morganella morganii; “++ ((++) 7-9 mm)” in [4]; “++ ((++) 7-9 mm)” in [1] (setting [6]); “++ ((++) 7-9 mm)” in the assay on Klebsiella pneumoniae (setting [6]); “+++ ((+++) 10-14 mm)” in [2] (setting [6]). The “inhibition zone diameter” value (in the assay with Enterobacter cloacae (setting [6]); in assay [3] (setting [6]); in the assay with Haemophilus influenzae) was “+++ ((+++) 10-14 mm)” throughout. The “minimal inhibitory concentration (MIC)” value with E. coli Apid^R is above 40 µg/mL; with S. typhimurium it was 0.5 to 1 µg/mL; in the assay on A. calcoaceticus it was above 20 µg/mL; with Y. enterocolitica it was 5 to 10 µg/mL; in the assay with E. coli 25922, 0.5 to 1 µg/mL; with E. coli 11775 (inoculum 16 × 10^6 CFU/ml) it was 0.5 to 1 µg/mL. Besides, the “minimal inhibitory concentration (MIC)” value in the assay with E. coli 11775 (inoculum 1200 CFU/ml) fell in the range of 0.5 to 1 µg/mL; with M. morganii, 20 to 40 µg/mL; in the assay on E. coli 23802, 5 to 10 µg/mL.
